Data published in ChEMBL document CHEMBL4616677, “Preclinical Lead Optimization of a 1,2,4-Triazole Based Tankyrase Inhibitor” (J Med Chem, 2020).
Calls of active or inactive are those of the source. No cut-off for these calls is given here.

Assays:
[1] = Clearance in ICR mouse at 5 mg/kg, po by LC-MS/MS analysis; format: ADME, organism-based; details: in vivo
[2] = molecular target: Poly [ADP-ribose] polymerase 1 (Homo sapiens, UniProt P09874); assay: Inhibition of ARTD1 (unknown origin) measured after 30 mins in presence of NAD+ by fluorescence assay
[3] = molecular target: Poly [ADP-ribose] polymerase 2 (Homo sapiens, UniProt Q9UGN5); assay: Inhibition of ARTD2 (unknown origin) measured after 30 mins in presence of NAD+ by fluorescence assay
[4] = molecular target: T1, Protein mono-ADP-ribosyltransferase PARP3 (Homo sapiens, UniProt Q9Y6F1); assay: Inhibition of ARTD3 (unknown origin) measured after 4 hrs in presence of NAD+ by fluorescence assay
T1 sequence (Q9Y6F1 whole entry): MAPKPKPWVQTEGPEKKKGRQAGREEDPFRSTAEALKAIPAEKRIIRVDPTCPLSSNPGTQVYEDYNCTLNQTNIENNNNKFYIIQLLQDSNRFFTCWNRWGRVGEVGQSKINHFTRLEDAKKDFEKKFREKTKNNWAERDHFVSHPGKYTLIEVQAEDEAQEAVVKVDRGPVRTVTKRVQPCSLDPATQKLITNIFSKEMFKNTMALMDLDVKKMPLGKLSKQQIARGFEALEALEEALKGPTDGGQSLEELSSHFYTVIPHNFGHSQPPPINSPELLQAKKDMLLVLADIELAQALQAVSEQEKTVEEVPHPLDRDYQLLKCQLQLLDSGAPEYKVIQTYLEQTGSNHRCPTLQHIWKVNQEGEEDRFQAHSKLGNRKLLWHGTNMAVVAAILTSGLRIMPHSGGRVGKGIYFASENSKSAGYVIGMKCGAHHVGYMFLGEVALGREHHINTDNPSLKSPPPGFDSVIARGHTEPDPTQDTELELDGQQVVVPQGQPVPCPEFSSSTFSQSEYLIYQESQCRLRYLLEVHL

[5] = molecular target: Protein mono-ADP-ribosyltransferase PARP4 (Homo sapiens, UniProt Q9UKK3)
[6] = Apparent permeability across apical to basolateral side in human Caco2 cells at 10 uM measured after 2 hrs by lucifer yellow based LC-MS/MS analysis; format: ADME, cell-based; details: Caco-2
[7] = Genotoxicity in Salmonella typhimurium TA98 in presence or absence of rat S9 fraction by mini-Ames test; format: toxicity; details: salmonella enterica subsp. enterica serovar typhimurium
[8] = Genotoxicity in Salmonella typhimurium TA100 in presence or absence of rat S9 fraction by mini-Ames test; format: toxicity; details: salmonella enterica subsp. enterica serovar typhimurium
RKO = assay: Antiproliferative activity against APC wild-type human RKO cells at 10 uM measured after 5 days by MTS assay; format: functional, cell-based

Protein mono-ADP-ribosyltransferase PARP4, sequence (Q9UKK3 whole entry): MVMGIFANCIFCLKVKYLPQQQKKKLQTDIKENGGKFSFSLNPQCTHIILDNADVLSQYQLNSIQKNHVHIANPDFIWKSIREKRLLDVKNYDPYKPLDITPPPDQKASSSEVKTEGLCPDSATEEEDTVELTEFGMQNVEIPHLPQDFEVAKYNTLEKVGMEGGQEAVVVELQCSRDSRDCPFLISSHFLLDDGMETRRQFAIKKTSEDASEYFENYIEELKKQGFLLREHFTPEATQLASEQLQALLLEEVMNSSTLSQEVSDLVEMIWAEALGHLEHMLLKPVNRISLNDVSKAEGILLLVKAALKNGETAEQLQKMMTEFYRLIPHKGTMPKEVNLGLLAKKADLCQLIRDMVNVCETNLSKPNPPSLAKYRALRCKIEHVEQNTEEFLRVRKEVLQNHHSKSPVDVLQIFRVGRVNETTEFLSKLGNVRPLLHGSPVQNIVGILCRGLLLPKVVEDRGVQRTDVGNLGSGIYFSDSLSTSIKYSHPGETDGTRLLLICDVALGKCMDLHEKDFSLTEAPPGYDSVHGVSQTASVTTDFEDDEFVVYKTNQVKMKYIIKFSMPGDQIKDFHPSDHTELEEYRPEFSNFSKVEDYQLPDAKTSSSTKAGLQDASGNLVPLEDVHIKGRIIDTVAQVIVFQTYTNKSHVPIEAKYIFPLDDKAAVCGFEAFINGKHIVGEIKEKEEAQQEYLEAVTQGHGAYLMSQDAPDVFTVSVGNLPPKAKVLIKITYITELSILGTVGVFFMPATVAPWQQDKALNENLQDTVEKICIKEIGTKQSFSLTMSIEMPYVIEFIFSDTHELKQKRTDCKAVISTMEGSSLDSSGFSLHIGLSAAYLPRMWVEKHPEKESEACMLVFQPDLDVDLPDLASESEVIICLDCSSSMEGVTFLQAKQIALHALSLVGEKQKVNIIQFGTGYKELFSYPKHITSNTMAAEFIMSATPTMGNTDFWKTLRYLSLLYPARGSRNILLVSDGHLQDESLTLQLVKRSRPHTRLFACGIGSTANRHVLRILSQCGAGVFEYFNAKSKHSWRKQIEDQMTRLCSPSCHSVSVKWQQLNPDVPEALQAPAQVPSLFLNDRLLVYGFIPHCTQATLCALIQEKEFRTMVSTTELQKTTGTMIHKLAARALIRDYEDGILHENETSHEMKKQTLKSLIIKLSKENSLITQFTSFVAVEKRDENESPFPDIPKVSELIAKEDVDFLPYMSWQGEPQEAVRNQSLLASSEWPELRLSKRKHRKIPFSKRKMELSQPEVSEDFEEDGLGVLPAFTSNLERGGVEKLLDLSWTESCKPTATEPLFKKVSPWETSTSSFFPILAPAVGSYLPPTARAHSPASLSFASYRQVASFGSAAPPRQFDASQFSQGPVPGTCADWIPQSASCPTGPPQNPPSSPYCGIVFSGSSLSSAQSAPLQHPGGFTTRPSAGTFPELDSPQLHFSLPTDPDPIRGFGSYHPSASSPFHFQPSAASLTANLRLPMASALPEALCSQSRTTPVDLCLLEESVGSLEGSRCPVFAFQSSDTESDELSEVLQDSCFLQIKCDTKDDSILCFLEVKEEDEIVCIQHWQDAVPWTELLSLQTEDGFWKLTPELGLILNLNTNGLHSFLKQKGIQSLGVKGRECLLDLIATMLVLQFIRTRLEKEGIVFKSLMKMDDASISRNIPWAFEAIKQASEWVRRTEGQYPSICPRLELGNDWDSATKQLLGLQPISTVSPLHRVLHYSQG
Poly [ADP-ribose] polymerase 2, sequence (Q9UGN5 whole entry): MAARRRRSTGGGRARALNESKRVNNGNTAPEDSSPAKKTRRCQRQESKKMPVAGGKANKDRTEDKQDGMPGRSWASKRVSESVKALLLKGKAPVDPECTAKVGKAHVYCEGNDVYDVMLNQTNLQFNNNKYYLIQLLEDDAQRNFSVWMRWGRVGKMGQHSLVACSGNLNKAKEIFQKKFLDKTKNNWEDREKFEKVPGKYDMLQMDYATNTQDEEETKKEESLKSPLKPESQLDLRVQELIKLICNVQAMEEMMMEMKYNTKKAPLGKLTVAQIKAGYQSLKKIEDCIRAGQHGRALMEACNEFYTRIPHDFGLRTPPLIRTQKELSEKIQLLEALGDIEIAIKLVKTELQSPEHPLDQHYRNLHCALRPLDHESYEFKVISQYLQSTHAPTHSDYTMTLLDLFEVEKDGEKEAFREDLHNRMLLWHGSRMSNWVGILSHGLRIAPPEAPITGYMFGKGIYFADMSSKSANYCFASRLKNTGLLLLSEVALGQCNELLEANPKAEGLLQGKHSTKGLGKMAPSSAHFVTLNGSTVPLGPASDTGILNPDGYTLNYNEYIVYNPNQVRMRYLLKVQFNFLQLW
Poly [ADP-ribose] polymerase 1, sequence (P09874 whole entry): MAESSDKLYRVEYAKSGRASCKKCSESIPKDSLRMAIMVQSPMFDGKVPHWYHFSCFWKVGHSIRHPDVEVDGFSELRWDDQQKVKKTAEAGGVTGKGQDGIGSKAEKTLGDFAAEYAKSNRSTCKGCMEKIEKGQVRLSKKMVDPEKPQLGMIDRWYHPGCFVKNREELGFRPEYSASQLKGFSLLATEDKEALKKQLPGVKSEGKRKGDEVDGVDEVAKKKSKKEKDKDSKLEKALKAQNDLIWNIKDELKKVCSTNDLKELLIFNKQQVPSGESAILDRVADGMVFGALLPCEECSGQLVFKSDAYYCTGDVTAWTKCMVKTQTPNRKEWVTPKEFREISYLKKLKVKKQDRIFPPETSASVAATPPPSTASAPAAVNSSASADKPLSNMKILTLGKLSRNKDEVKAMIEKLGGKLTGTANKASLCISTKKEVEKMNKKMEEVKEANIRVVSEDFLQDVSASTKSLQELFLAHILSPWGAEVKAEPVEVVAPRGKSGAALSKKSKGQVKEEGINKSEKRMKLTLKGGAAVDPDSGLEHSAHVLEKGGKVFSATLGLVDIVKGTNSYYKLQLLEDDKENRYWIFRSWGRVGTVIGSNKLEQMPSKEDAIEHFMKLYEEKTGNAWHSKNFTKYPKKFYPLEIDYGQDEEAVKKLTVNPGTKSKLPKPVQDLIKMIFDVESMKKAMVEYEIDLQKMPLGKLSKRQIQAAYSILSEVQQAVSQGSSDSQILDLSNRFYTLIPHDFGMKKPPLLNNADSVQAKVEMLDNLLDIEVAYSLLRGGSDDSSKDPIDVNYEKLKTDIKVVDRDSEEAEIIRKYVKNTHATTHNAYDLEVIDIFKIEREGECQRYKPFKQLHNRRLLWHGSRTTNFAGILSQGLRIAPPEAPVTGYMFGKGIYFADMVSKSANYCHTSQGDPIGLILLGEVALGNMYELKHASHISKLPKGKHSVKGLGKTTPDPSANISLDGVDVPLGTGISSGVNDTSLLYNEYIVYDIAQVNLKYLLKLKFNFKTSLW

CL/F [1] [mL/min/kg] | SMILES | IC50 [4] [µM] | Papp A→B at 2 h, 10 µM [6] [×10⁻⁶ cm/s] | other results
16.5 | O=C(N[C@H]1C[C@H](c2nnc(-c3ccccn3)n2-c2ccccc2F)C1)c1ccnc2cc(F)cnc12 | – | – | –
28.2 | CS(=O)(=O)c1ccc(-c2nnc([C@H]3C[C@H](NC(=O)c4cccc5cccnc45)C3)n2-c2ccccc2F)nc1 | – | – | –
– | N#Cc1ccc2c(c1)[nH]c(=O)n2[C@H]1C[C@H](c2nnc(-c3ccncn3)n2-c2ccccc2Cl)C1 | > 10 | – | IC50 [2]: > 10 µM; IC50 [3]: > 10 µM; IC50 [5]: > 10 µM
– | O=C(N[C@H]1C[C@H](c2nnc(-c3ccncn3)n2-c2ccccc2Cl)C1)c1ccnc2cccnc12 | – | 3.1 | –

SMILES | CL/F [1] [mL/min/kg] | IC50 [4] [µM] | Papp A→B at 2 h, 10 µM [6] [×10⁻⁶ cm/s] | other results
CCOc1ccc(-c2nnc([C@H]3C[C@H](NC(=O)c4ccccn4)C3)n2-c2ccccc2F)nc1 | 34.8 | > 10 | 39.5 to 40 | Activity [7]: Non-Toxic; Activity [8]: Non-Toxic; Activity (RKO): Active
